SMILES strings stand for the structures. Some results are limits rather than exact numbers.

What is called IC50 is the concentration that gives 50% inhibition.

SOS1, sequence (Q07889 564-1049): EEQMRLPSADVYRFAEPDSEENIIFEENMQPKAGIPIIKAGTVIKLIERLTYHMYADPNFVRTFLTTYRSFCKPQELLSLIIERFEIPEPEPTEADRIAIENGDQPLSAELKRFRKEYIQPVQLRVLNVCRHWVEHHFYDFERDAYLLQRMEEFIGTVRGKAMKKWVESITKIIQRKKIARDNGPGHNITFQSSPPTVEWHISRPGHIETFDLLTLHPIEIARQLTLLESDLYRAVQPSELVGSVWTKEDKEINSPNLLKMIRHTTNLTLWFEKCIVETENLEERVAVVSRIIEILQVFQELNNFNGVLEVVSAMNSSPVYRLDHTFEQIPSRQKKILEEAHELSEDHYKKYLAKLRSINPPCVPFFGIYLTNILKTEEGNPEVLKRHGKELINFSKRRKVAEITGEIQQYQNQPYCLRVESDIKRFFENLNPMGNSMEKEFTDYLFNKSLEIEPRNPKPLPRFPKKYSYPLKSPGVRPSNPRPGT

The target of this assay is SOS1 (Homo sapiens (Human), UniProt Q07889). The experiment in a line: Ras-SOS interaction assay (HTRF), K-Ras G13D utilized. Conditions: K-Ras G13D, read-out: SOS1 IC50. The assay is classed as binding. From the text:
For example, the equilibrium interaction of human SOS1 (hSOS1) with human wildtype Kras or K-Ras mutant (e.g., hK-Ras G12C mutant, or hK-Ras G12C) can be assessed as a proxy or an indication for a subject compound's ability to inhibit SOS. Detection of such interaction is achieved by measuring homogenous time-resolved fluorescence resonance energy transfer (HTRF) from (i) a fluorescence resonance energy transfer (FRET) donor (e.g., antiGST-Europium) that is bound to GST-tagged K-Ras G12C to (ii) a FRET acceptor (e.g., anti-6His-XL665) bound to a His-tagged hSOS1.
A Ras working solution is prepared in assay buffer containing typically 10 nM of the protein construct (e.g., GST-tagged hK-Ras G12C) and 2 nM of the FRET donor (e.g., antiGST-Eu(K) from Cisbio, France). A SOS1 working solution is prepared in assay buffer containing typically 10 nM of the protein construct (e.g., His-hSOS1) and 10 nM of the FRET acceptor (e.g., anti-6His-XL665 from Cisbio, France). An inhibitor control solution is prepared in assay buffer containing 10 nM of the FRET acceptor without the SOS1 protein.
A fixed reaction mixture with or without test compound is transferred into a 384-well plate. Ras working solution is added to all wells of the test plate. SOS1 working solution is added to all wells except for those that are subsequently filled with the inhibitor control solution. […] The ratiometric data (i.e., emission 2 divided by emission 1) is used to calculate IC50 values against SOS1 using GraphPad Prism (GraphPad software).
(In general: TR-FRET usually uses a lanthanide donor and a delayed reading to cut background.)
In the case of `Cc1nc2c3cc(C4(C#N)CC4)c(=O)n(c3n1)CCC/C=C\COCC(F)(F)c1cccc(c1F)[C@@H](C)N2` [Compound 1, 1-((3R,Z)-4^2,5,5-trifluoro-1^2,3-dimethyl-1^7-oxo-1^7,1^8-dihydro-7-oxa-2-aza-1(4,8)-pyrido[2,3-d]pyrimidina-4(1,3)-benzenacyclotridecaphan-9-en-16-yl)cyclopropane-1-carbonitrile], the IC50 lay in the range of 100 to 5000 nM.
Under `C[C@H]1Nc2nc(=O)n(c3c2cc(C2(C#N)CC2)c(=O)n3C)CCC/C=C\COCC(F)(F)c2cccc1c2F` [Compound 2, 1-((1^3E,3R,9Z)-4^2,5,5-trifluoro-1^8,3-dimethyl-1^2,1^7-dioxo-1^1,1^2,1^7,1^8-tetrahydro-7-oxa-2-aza-1(4,1)-pyrido[2,3-d]pyrimidina-4(1,3)-benzenacyclotridecaphan-9-en-1^6-yl)cyclopropane-1-carbonitrile] stands 100 to 5000 nM; under `C[C@H]1Nc2nc(=O)n(c3c2cc(C2(C#N)CC2)c(=O)n3C)CCCCCOCC(F)(F)c2cccc1c2F` [Compound 5, 1-((3R,E)-4^2,5,5-trifluoro-1^8,3-dimethyl-1^2,1^7-dioxo-1^1,1^2,1^7,1^8-tetrahydro-7-oxa-2-aza-1(4,1)-pyrido[2,3-d]pyrimidina-4(1,3)-benzenacyclododecaphane-1^6-yl)cyclopropane-1-carbonitrile], 100 to 5000 nM; under `Cc1nc2c3cc(C4CCS(=O)(=O)CC4)c(=O)n(c3n1)CCCCCCCN1CCC(CC1)C(F)(F)c1cccc(c1)[C@@H](C)N2` [Compound 7, (4R)-6^6-(1,1-dioxidotetrahydro-2H-thiopyran-4-yl)-2,2-difluoro-6^2,4-dimethyl-6^7,6^8-dihydro-5-aza-6(4,8)-pyrido[2,3-d]pyrimidina-1(4,1)-piperidina-3(1,3)-benzenacyclotridecaphan-6^7-one], 100 to 5000 nM.
As for `Cc1nc2c3cc(C4(C#N)CC4)c(=O)n(c3n1)CCCC/C=C\CC(C)(O)C(F)(F)c1cccc(c1)[C@@H](C)N2` (stereo partly drawn) [Compound 13, 1-((3R,Z)-5,5-difluoro-6-hydroxy-1^2,3,6-trimethyl-1^7-oxo-1^7,1^8-dihydro-2-aza-1(4,8)-pyrido[2,3-d]pyrimidina-4(1,3)-benzenacyclotridecaphan-8-en-1^6-yl)cyclopropane-1-carbonitrile], the figure is 100 to 5000 nM; as for `COc1cc2nc(C)nc3c2cc1OCCOCCOCCOCCNC(=O)CCOCCNCc1ccccc1-c1cccc(c1)[C@@H](C)N3` [Compound 14, (R)-5^7-methoxy-5^2,3-dimethyl-6,9,12,15,22-pentaoxa-4,18,25-triaza-5(4,6)-quinazolina-1(1,2),2(1,3)-dibenzenacyclohexacosaphan-19-one], 100 to 5000 nM; as for `Cc1nc2c3cc(C4(C#N)CC4)c(=O)n(c3n1)CCCCCC/C=C\CC(C)(O)C(F)(F)c1cccc(c1)[C@@H](C)N2` (stereo partly drawn) [Compound 18, 1-((3R,Z)-5,5-difluoro-6-hydroxy-1^2,3,6-trimethyl-1^7-oxo-1^7,1^8-dihydro-2-aza-1(4,8)-pyrido[2,3-d]pyrimidina-4(1,3)-benzenacyclopentadecaphan-8-en-1^6-yl)cyclopropane-1-carbonitrile], 100 to 5000 nM.
Under `C[C@H]1Nc2nc(=O)n(c3c2cc(C2(C#N)CC2)c(=O)n3C)CCCCOCC(F)(F)c2cccc1c2F` [Compound 37, 1-((3R,E)-4^2,5,5-trifluoro-1^8,3-dimethyl-1^2,1^7-dioxo-1^1,1^2,1^7,1^8-tetrahydro-7-oxa-2-aza-1(4,1)-pyrido[2,3-d]pyrimidina-4(1,3)-benzenacycloundecaphane-1^6-yl)cyclopropane-1-carbonitrile] stands 100 to 5000 nM; under `COc1cc2nc(C)nc3c2cc1OCCOCCOCCOCCOCCNC(=O)CCCCNCc1ccccc1C1=CC=C(S1)C(C)N3` (centres unmarked) [Compound 45, 5^7-methoxy-5^2,3-dimethyl-6,9,12,15,18-pentaoxa-4,21,27-triaza-5(4,6)-quinazolina-2(2,5)-thiophena-1(1,2)-benzenacyclooctacosaphan-22-one], under 100 nM.
For `COc1cc2nc(C)nc3c2cc1OCCOCCOCCOCCOCCNC(=O)CCCNCc1ccccc1C1=CC=C(S1)C(C)N3` (centres unmarked) [Compound 51, 5^7-methoxy-5^2,3-dimethyl-6,9,12,15,18-pentaoxa-4,21,26-triaza-5(4,6)-quinazolina-2(2,5)-thiophena-1(1,2)-benzenacycloheptacosaphan-22-one], the IC50 is under 100 nM.
As for `C[C@H]1Nc2nc(=O)n(c3c2cc(C2(C#N)CC2)c(=O)n3C)C/C=C\COCC(F)(F)c2cccc1c2F` [Compound 66, 1-((1^3E,3R,9Z)-4^2,5,5-trifluoro-1^8,3-dimethyl-1^2,1^7-dioxo-1^1,1^2,1^7,1^8-tetrahydro-7-oxa-2-aza-1(4,1)-pyrido[2,3-d]pyrimidina-4(1,3)-benzenacycloundecaphan-9-en-1^6-yl)cyclopropane-1-carbonitrile], the figure is 100 to 5000 nM; as for `C[C@H]1Nc2ncnc3c2cc(N2CCS(=O)(=O)CC2)c(=O)n3CCCOCCCCN2CCC(CC2)C(F)(F)c2cccc1c2F` [Compound 69, (4R)-6^6-(1,1-dioxidothiomorpholino)-3^2,2,2-trifluoro-4-methyl-6^7,6^8-dihydro-10-oxa-5-aza-6(4,8)-pyrido[2,3-d]pyrimidina-1(4,1)-piperidina-3(1,3)-benzenacyclotetradecaphan-6^7-one], under 100 nM; as for `C[C@H]1Nc2ncnc3c2cc(C2CCS(=O)(=O)CC2)c(=O)n3CCNC(=O)CCCN2CCC(CC2)C(F)(F)c2cccc1c2` [Compound 75, (4R)-6^6-(1,1-dioxidotetrahydro-2H-thiopyran-4-yl)-2,2-difluoro-4-methyl-6^7,6^8-dihydro-5,9-diaza-6(4,8)-pyrido[2,3-d]pyrimidina-1(4,1)-piperidina-3(1,3)-benzenacyclotridecaphane-6^7,10-dione], under 100 nM.
Under `C[C@H]1Nc2nc(=O)n(c3c2cc(C2(C#N)CC2)c(=O)n3C)CCCC/C=C\COCC(F)(F)c2cccc1c2F` [Compound 82, 1-((1^3E,3R,9Z)-4^2,5,5-trifluoro-1^8,3-dimethyl-1^2,1^7-dioxo-1^1,1^2,1^7,1^8-tetrahydro-7-oxa-2-aza-1(4,1)-pyrido[2,3-d]pyrimidina-4(1,3)-benzenacyclotetradecaphan-9-en-1^6-yl)cyclopropane-1-carbonitrile] stands 100 to 5000 nM.
Regarding `C[C@H]1Nc2ncnc3c2cc(C2(C#N)CC2)c(=O)n3CC(=O)N(C)CCCCN2CCC(CC2(C)C)C(F)(F)c2cccc1c2` (stereo partly drawn) [Compound 93, 1-((4R)-2,2-difluoro-1^2,1^2,4,9-tetramethyl-6^7,8-dioxo-6^7,6^8-dihydro-5,9-diaza-6(4,8)-pyrido[2,3-d]pyrimidina-1(4,1)-piperidina-3(1,3)-benzenacyclotridecaphane-6^6-yl)cyclopropane-1-carbonitrile], the IC50 was under 100 nM.
Under `COc1cc2nc(C)nc3c2cc1OCCOCCOCCOCCOCCNCc1ccccc1-c1cccc(c1)C(C)N3` (centres unmarked) [Compound 99, 5^7-methoxy-5^2,3-dimethyl-6,9,12,15,18-pentaoxa-4,21-diaza-5(4,6)-quinazolina-1(1,2),2(1,3)-dibenzenacyclodocosaphane] stands 100 to 5000 nM; under `C[C@H]1Nc2nc(=O)n(c3c2cc(C2(C#N)CC2)c(=O)n3C)CC/C=C\COCC(F)(F)c2cccc1c2F` [Compound 102, 1-((1^3E,3R,9Z)-4^2,5,5-trifluoro-1^8,3-dimethyl-1^2,1^7-dioxo-1^1,1^2,1^7,1^8-tetrahydro-7-oxa-2-aza-1(4,1)-pyrido[2,3-d]pyrimidina-4(1,3)-benzenacyclododecaphan-9-en-1^6-yl)cyclopropane-1-carbonitrile], 100 to 5000 nM.
Regarding `Cc1nc2c3cc(C4(C#N)CC4)c(=O)n(c3n1)CCCCCCCCCC(C)(O)C(F)(F)c1cccc(c1)[C@@H](C)N2` (stereo partly drawn) [Compound 115, 1-((3R)-5,5-difluoro-6-hydroxy-1^2,3,6-trimethyl-1^7-oxo-1^7,1^8-dihydro-2-aza-1(4,8)-pyrido[2,3-d]pyrimidina-4(1,3)-benzenacyclopentadecaphane-1^6-yl)cyclopropane-1-carbonitrile], the IC50 was 100 to 5000 nM.
In the case of `Cc1nc2c3cc(C4(C#N)CC4)c(=O)n(c3n1)CCCCCCCCCOCC(F)(F)c1cccc(c1F)[C@@H](C)N2` [Compound 133, 1-((3R)-4^2,5,5-trifluoro-1^2,3-dimethyl-1^7-oxo-1^7,1^8-dihydro-7-oxa-2-aza-1(4,8)-pyrido[2,3-d]pyrimidina-4(1,3)-benzenacyclohexadecaphane-1^6-yl)cyclopropane-1-carbonitrile], the IC50 fell in the range of 100 to 5000 nM.
Take `COc1cc2nc(C)nc3c2cc1OCCOCCOCCOCCOCCNC(=O)CCNCc1ccccc1C1=CC=C(S1)C(C)N3` (centres unmarked) [Compound 136, 5^7-methoxy-5^2,3-dimethyl-6,9,12,15,18-pentaoxa-4,21,25-triaza-5(4,6)-quinazolina-2(2,5)-thiophena-1(1,2)-benzenacyclohexacosaphan-22-one]: the IC50 is 100 to 5000 nM.

The values are drawn from US20230339952A1, “MACROCYCLIC HETEROCYCLES AND USES THEREOF” (Kumquat Biosciences Inc., priority 2022, published 2023).
